Test results published in PubChem BioAssay (NCI).
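All cell lines were grown in 96-well plates and treated with compound for 48 hours. At the GI50, growth is halved. TGI: concentration producing complete growth inhibition.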

Key:
Experiment in all cases: NCI tumour cell line growth inhibition, 48 h
SK-MEL-5 melanoma = tested on: SK-MEL-5 melanoma
SF-295 CNS = tested on: SF-295 CNS
EKVX NSCLC = tested on: EKVX NSCLC
SN12C renal = tested on: SN12C renal
HCC-2998 colon = tested on: HCC-2998 colon
HCT-116 colon = tested on: HCT-116 colon
SNB-75 CNS = tested on: SNB-75 CNS
KM12 colon = tested on: KM12 colon
PC-3 prostate = tested on: PC-3 prostate
NCI-H23 lung = tested on: NCI-H23 lung
TK-10 renal = tested on: TK-10 renal
HS 578T breast = tested on: HS 578T breast
NCI/ADR-RES ovarian = tested on: NCI/ADR-RES ovarian
UACC-62 melanoma = tested on: UACC-62 melanoma
CAKI-1 renal = tested on: CAKI-1 renal
COLO 205 colon = tested on: COLO 205 colon
MOLT-4 leukemia = tested on: MOLT-4 leukemia
CCRF-CEM leukemia = tested on: CCRF-CEM leukemia
MDA-MB-468 breast = tested on: MDA-MB-468 breast
OVCAR-3 ovarian = tested on: OVCAR-3 ovarian
OVCAR-4 ovarian = tested on: OVCAR-4 ovarian
SR leukemia = tested on: SR leukemia
SF-268 CNS = tested on: SF-268 CNS
K-562 leukemia = tested on: K-562 leukemia
UO-31 renal = tested on: UO-31 renal
SK-OV-3 ovarian = tested on: SK-OV-3 ovarian
MCF7 breast = tested on: MCF7 breast
BT-549 breast = tested on: BT-549 breast
DU-145 prostate = tested on: DU-145 prostate
SW-620 colon = tested on: SW-620 colon

**Q.** With `CN1CCN(CCS(=O)(=O)Nc2cc(-c3ccc4ncnc(Nc5ccc(F)c(Cl)c5)c4c3)cnc2Cl)CC1` as the compound, how does the TGI (SK-MEL-5 melanoma) read?
**A.** 4.34 µM

**Q.** And the GI50 (SF-295 CNS)?
**A.** 3.01 µM

**Q.** What about the TGI (SF-295 CNS) of the same compound?
**A.** 65.1 µM

**Q.** What about the GI50 (EKVX NSCLC) of the same compound?
**A.** 1.23 µM

**Q.** What about the TGI (EKVX NSCLC) of the same compound?
**A.** 6.36 µM

**Q.** What about the GI50 (SN12C renal) of the same compound?
**A.** 3.25 µM

**Q.** What about the TGI (SN12C renal) of the same compound?
**A.** > 100 µM

**Q.** What about the GI50 (HCC-2998 colon) of the same compound?
**A.** 1.6 µM

**Q.** What about the TGI (HCC-2998 colon) of the same compound?
**A.** 6.2 µM

**Q.** What about the GI50 (HCT-116 colon) of the same compound?
**A.** 4.18 µM

**Q.** What about the TGI (HCT-116 colon) of the same compound?
**A.** 18.5 µM

**Q.** What about the GI50 (SNB-75 CNS) of the same compound?
**A.** 0.458 µM

**Q.** What about the TGI (SNB-75 CNS) of the same compound?
**A.** 11 µM

**Q.** What about the GI50 (KM12 colon) of the same compound?
**A.** 8.23 µM

**Q.** And the TGI (KM12 colon)?
**A.** 31.5 µM

**Q.** What about the GI50 (PC-3 prostate) of the same compound?
**A.** 2.09 µM

**Q.** And the TGI (PC-3 prostate)?
**A.** 19.6 µM

**Q.** What about the GI50 (NCI-H23 lung) of the same compound?
**A.** 2.8 µM

**Q.** And the TGI (NCI-H23 lung)?
**A.** 15.1 µM

**Q.** And the GI50 (TK-10 renal)?
**A.** 1.83 µM

**Q.** And the TGI (TK-10 renal)?
**A.** 13.2 µM

**Q.** What about the GI50 (HS 578T breast) of the same compound?
**A.** 0.32 µM

**Q.** And the TGI (HS 578T breast)?
**A.** 3.75 µM

**Q.** And the GI50 (NCI/ADR-RES ovarian)?
**A.** 66.6 µM

**Q.** What about the TGI (NCI/ADR-RES ovarian) of the same compound?
**A.** > 100 µM

**Q.** What about the GI50 (UACC-62 melanoma) of the same compound?
**A.** 1.18 µM

**Q.** What about the TGI (UACC-62 melanoma) of the same compound?
**A.** 9.65 µM

**Q.** And the GI50 (CAKI-1 renal)?
**A.** 1.33 µM

**Q.** What about the TGI (CAKI-1 renal) of the same compound?
**A.** 19 µM

**Q.** And the GI50 (COLO 205 colon)?
**A.** 2.74 µM

**Q.** What about the TGI (COLO 205 colon) of the same compound?
**A.** 10.4 µM

**Q.** And the GI50 (MOLT-4 leukemia)?
**A.** 2.5 µM

**Q.** And the TGI (MOLT-4 leukemia)?
**A.** 7.08 µM

**Q.** What about the GI50 (CCRF-CEM leukemia) of the same compound?
**A.** 0.579 µM

**Q.** And the TGI (CCRF-CEM leukemia)?
**A.** 80.4 µM

**Q.** And the GI50 (MDA-MB-468 breast)?
**A.** 0.205 µM

**Q.** And the TGI (MDA-MB-468 breast)?
**A.** 0.902 µM

**Q.** What about the GI50 (OVCAR-3 ovarian) of the same compound?
**A.** 0.596 µM

**Q.** And the TGI (OVCAR-3 ovarian)?
**A.** 2.99 µM

**Q.** What about the GI50 (OVCAR-4 ovarian) of the same compound?
**A.** 5.45 µM

**Q.** And the TGI (OVCAR-4 ovarian)?
**A.** > 100 µM

**Q.** And the GI50 (SR leukemia)?
**A.** 2.06 µM

**Q.** And the TGI (SR leukemia)?
**A.** 7.68 µM

**Q.** And the GI50 (SF-268 CNS)?
**A.** 1.8 µM

**Q.** And the TGI (SF-268 CNS)?
**A.** 37.7 µM

**Q.** And the GI50 (K-562 leukemia)?
**A.** 4.5 µM

**Q.** And the TGI (K-562 leukemia)?
**A.** > 100 µM

**Q.** What about the GI50 (UO-31 renal) of the same compound?
**A.** 2.07 µM

**Q.** And the TGI (UO-31 renal)?
**A.** 13.4 µM

**Q.** And the GI50 (SK-OV-3 ovarian)?
**A.** 1.59 µM

**Q.** What about the TGI (SK-OV-3 ovarian) of the same compound?
**A.** 7.28 µM

**Q.** And the GI50 (MCF7 breast)?
**A.** 1.16 µM

**Q.** And the TGI (MCF7 breast)?
**A.** 15.3 µM

**Q.** And the GI50 (BT-549 breast)?
**A.** 1.06 µM

**Q.** What about the TGI (BT-549 breast) of the same compound?
**A.** 4.28 µM

**Q.** And the GI50 (DU-145 prostate)?
**A.** 3.23 µM

**Q.** And the TGI (DU-145 prostate)?
**A.** > 100 µM

**Q.** And the GI50 (SW-620 colon)?
**A.** 1.95 µM

**Q.** What about the TGI (SW-620 colon) of the same compound?
**A.** 38.6 µM
